Tests used:
Design in all cases: scale not given here
AMBEL Ragweed, Common [1] = assay: Postemergence herbicidal evaluation, AMBEL; format: in vivo, Ambrosia artemisifolia, L.; conditions: postemergence spray, rated about two-three weeks after treatment
How it was run: (§1)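 For this test, compound in an 80/20 acetone/water vehicle with 1.0% seed oil was sprayed over two-week-old seedlings at about 0.006 to 0.400 kg per hectare. Injury was assessed visually two to three weeks on.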

[2] = system: IPOHE Morningglory, Ivyleaf; assay: Preemergence herbicidal evaluation, IPOHE; format: in vivo, Ipomoea hederacea, (L.) Jacq.; conditions: preemergence
How it was run: (§2)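 Seeds mixed with potting soil were planted on about one inch of soil in cups, then sprayed with the test compound in aqueous acetone at roughly 0.013 to 0.800 kg per hectare. Plants were kept under standard greenhouse care and injury was rated four to five weeks after treatment.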

[3] = system: IPOHE Morningglory, Ivyleaf; assay: Postemergence herbicidal evaluation, IPOHE; format: in vivo, Ipomoea hederacea, (L.) Jacq.; conditions: postemergence spray, rated about two-three weeks after treatment
How it was run: as §1

CASOB Sicklepod = assay: Preemergence herbicidal evaluation, CASOB; format: in vivo, Cassia obtusifolia, L.; conditions: preemergence
How it was run: as §2

ZEAMX Corn, Field [4] = assay: Postemergence herbicidal evaluation, ZEAMX; format: in vivo, Zea mays, L. (Sammel-Bezeichnung); conditions: postemergence spray, rated about two-three weeks after treatment
How it was run: as §1

GLXMAW Soybean, Williams [5] = assay: Preemergence herbicidal evaluation, GLXMAW; format: in vivo, Glycine max, (L.) Merr. cv Williams; conditions: preemergence
How it was run: as §2

SETVI Foxtail, Green [6] = assay: Preemergence herbicidal evaluation, SETVI; format: in vivo, Setaria viridis, (L.) Beau; conditions: preemergence
How it was run: as §2

AMBEL Ragweed, Common [7] = assay: Preemergence herbicidal evaluation, AMBEL; format: in vivo, Ambrosia artemisifolia, L.; conditions: preemergence
How it was run: as §2

ABUTH Velvetleaf = assay: Preemergence herbicidal evaluation, ABUTH; format: in vivo, Abutilon theophrasti, Medic.; conditions: preemergence
How it was run: as §2

ORYSAT Rice, Tebonnet = assay: Preemergence herbicidal evaluation, ORYSAT; format: in vivo, Oryza sativa, (L.); conditions: preemergence
How it was run: as §2

[8] = system: TRZAWR Wheat, Winter, cv Riband; assay: Preemergence herbicidal evaluation, TRZAWR; format: in vivo, Triticum aestivum; conditions: preemergence
How it was run: as §2

[9] = system: CHEAL Lambsquarters, Common; assay: Preemergence herbicidal evaluation, CHEAL; format: in vivo, Chenopodium album, L.; conditions: preemergence
How it was run: as §2

ZEAMX Corn, Field [10] = assay: Preemergence herbicidal evaluation, ZEAMX; format: in vivo, Zea mays, L. (Sammel-Bezeichnung); conditions: preemergence
How it was run: as §2

[11] = system: TRZAWR Wheat, Winter, cv Riband; assay: Postemergence herbicidal evaluation, TRZAWR; format: in vivo, Triticum aestivum; conditions: postemergence spray, rated about two-three weeks after treatment
How it was run: as §1

GLXMAW Soybean, Williams [12] = assay: Postemergence herbicidal evaluation, GLXMAW; format: in vivo, Glycine max, (L.) Merr. cv Williams; conditions: postemergence spray, rated about two-three weeks after treatment
How it was run: as §1

ECHOG Barnyardgrass = assay: Preemergence herbicidal evaluation, ECHOG; format: in vivo, Echinochloa crus-galli, (L.) Beau; conditions: preemergence
How it was run: as §2

SETVI Foxtail, Green [13] = assay: Postemergence herbicidal evaluation, SETVI; format: in vivo, Setaria viridis, (L.) Beau; conditions: postemergence spray, rated about two-three weeks after treatment
How it was run: as §1

GALAP Galium = assay: Preemergence herbicidal evaluation, GALAP; format: in vivo, Galium aparine; conditions: preemergence
How it was run: as §2

## Cc1ccc(O)c(-n2nnc3cc(F)c(-n4c(=O)cc(C(F)(F)F)n(C)c4=O)cc32)c1 [Example 31, 3-[5-Fluoro-1-(2-Hydroxy-5-Methylphenyl)-1H-1,2,3-Benzotriazol-6-yl]-1-Methyl-6-(Trifluoromethyl)-2,4(1H,3H)-(Pyrimidinedione)]
AMBEL Ragweed, Common [1]; 0.008 kg/ha
  Postemergence herbicidal rating AMBEL: 0.0
AMBEL Ragweed, Common [1]; 0.016 kg/ha
  Postemergence herbicidal rating AMBEL: 0.0
AMBEL Ragweed, Common [1]; 0.032 kg/ha
  Postemergence herbicidal rating AMBEL: 0.0
AMBEL Ragweed, Common [1]; 0.062 kg/ha
  Postemergence herbicidal rating AMBEL: 3.0
[2]; rate 0.008 kg/ha
  IPOHE herbicidal rating: 0.0
[2]; rate 0.016 kg/ha
  IPOHE herbicidal rating: 0.0
[2]; rate 0.032 kg/ha
  IPOHE herbicidal rating: 0.0
[2]; rate 0.062 kg/ha
  IPOHE herbicidal rating: 0.0
[2]; rate 0.125 kg/ha
  IPOHE herbicidal rating: 0.0
[3]; 0.008 kg/ha
  Postemergence herbicidal rating IPOHE: 1.0
[3]; 0.016 kg/ha
  Postemergence herbicidal rating IPOHE: 2.0
[3]; 0.032 kg/ha
  Postemergence herbicidal rating IPOHE: 4.0
[3]; 0.062 kg/ha
  Postemergence herbicidal rating IPOHE: 4.0
CASOB Sicklepod; rate 0.008 kg/ha
  CASOB herbicidal rating: 0.0
CASOB Sicklepod; rate 0.016 kg/ha
  CASOB herbicidal rating: 0.0
CASOB Sicklepod; rate 0.032 kg/ha
  CASOB herbicidal rating: 0.0
CASOB Sicklepod; rate 0.062 kg/ha
  CASOB herbicidal rating: 0.0
CASOB Sicklepod; rate 0.125 kg/ha
  CASOB herbicidal rating: 0.0
ZEAMX Corn, Field [4]; 0.008 kg/ha
  Postemergence herbicidal rating ZEAMX: 3.5
ZEAMX Corn, Field [4]; 0.016 kg/ha
  Postemergence herbicidal rating ZEAMX: 3.5
ZEAMX Corn, Field [4]; 0.032 kg/ha
  Postemergence herbicidal rating ZEAMX: 4.5
ZEAMX Corn, Field [4]; 0.062 kg/ha
  Postemergence herbicidal rating ZEAMX: 4.5
GLXMAW Soybean, Williams [5]; rate 0.008 kg/ha
  GLXMAW herbicidal rating: 0.0
GLXMAW Soybean, Williams [5]; rate 0.016 kg/ha
  GLXMAW herbicidal rating: 0.0
GLXMAW Soybean, Williams [5]; rate 0.032 kg/ha
  GLXMAW herbicidal rating: 0.0
GLXMAW Soybean, Williams [5]; rate 0.062 kg/ha
  GLXMAW herbicidal rating: 0.0
GLXMAW Soybean, Williams [5]; rate 0.125 kg/ha
  GLXMAW herbicidal rating: 0.0
SETVI Foxtail, Green [6]; rate 0.008 kg/ha
  SETVI herbicidal rating: 0.0
SETVI Foxtail, Green [6]; rate 0.016 kg/ha
  SETVI herbicidal rating: 0.0
SETVI Foxtail, Green [6]; rate 0.032 kg/ha
  SETVI herbicidal rating: 0.0
SETVI Foxtail, Green [6]; rate 0.062 kg/ha
  SETVI herbicidal rating: 0.0
SETVI Foxtail, Green [6]; rate 0.125 kg/ha
  SETVI herbicidal rating: 0.0
AMBEL Ragweed, Common [7]; rate 0.008 kg/ha
  AMBEL herbicidal rating: 0.0
AMBEL Ragweed, Common [7]; rate 0.016 kg/ha
  AMBEL herbicidal rating: 0.0
AMBEL Ragweed, Common [7]; rate 0.032 kg/ha
  AMBEL herbicidal rating: 0.0
AMBEL Ragweed, Common [7]; rate 0.062 kg/ha
  AMBEL herbicidal rating: 0.0
AMBEL Ragweed, Common [7]; rate 0.125 kg/ha
  AMBEL herbicidal rating: 0.0
ABUTH Velvetleaf; rate 0.008 kg/ha
  ABUTH herbicidal rating: 0.0
ABUTH Velvetleaf; rate 0.016 kg/ha
  ABUTH herbicidal rating: 0.0
ABUTH Velvetleaf; rate 0.032 kg/ha
  ABUTH herbicidal rating: 0.0
ABUTH Velvetleaf; rate 0.062 kg/ha
  ABUTH herbicidal rating: 0.0
ABUTH Velvetleaf; rate 0.125 kg/ha
  ABUTH herbicidal rating: 3.0
ORYSAT Rice, Tebonnet; rate 0.008 kg/ha
  ORYSAT herbicidal rating: 0.0
ORYSAT Rice, Tebonnet; rate 0.016 kg/ha
  ORYSAT herbicidal rating: 0.0
ORYSAT Rice, Tebonnet; rate 0.032 kg/ha
  ORYSAT herbicidal rating: 0.0
ORYSAT Rice, Tebonnet; rate 0.062 kg/ha
  ORYSAT herbicidal rating: 0.0
ORYSAT Rice, Tebonnet; rate 0.125 kg/ha
  ORYSAT herbicidal rating: 0.0
[8]; rate 0.008 kg/ha
  TRZAWR herbicidal rating: 0.0
[8]; rate 0.016 kg/ha
  TRZAWR herbicidal rating: 0.0
[8]; rate 0.032 kg/ha
  TRZAWR herbicidal rating: 0.0
[8]; rate 0.062 kg/ha
  TRZAWR herbicidal rating: 0.0
[8]; rate 0.125 kg/ha
  TRZAWR herbicidal rating: 0.0
[9]; rate 0.008 kg/ha
  CHEAL herbicidal rating: 0.0
[9]; rate 0.016 kg/ha
  CHEAL herbicidal rating: 0.0
[9]; rate 0.032 kg/ha
  CHEAL herbicidal rating: 0.0
[9]; rate 0.062 kg/ha
  CHEAL herbicidal rating: 3.0
[9]; rate 0.125 kg/ha
  CHEAL herbicidal rating: 9.0
ZEAMX Corn, Field [10]; rate 0.008 kg/ha
  ZEAMX herbicidal rating: 0.0
ZEAMX Corn, Field [10]; rate 0.016 kg/ha
  ZEAMX herbicidal rating: 0.0
ZEAMX Corn, Field [10]; rate 0.032 kg/ha
  ZEAMX herbicidal rating: 0.0
ZEAMX Corn, Field [10]; rate 0.062 kg/ha
  ZEAMX herbicidal rating: 0.0
ZEAMX Corn, Field [10]; rate 0.125 kg/ha
  ZEAMX herbicidal rating: 0.0
[11]; 0.008 kg/ha
  Postemergence herbicidal rating TRZAWR: 2.0
[11]; 0.016 kg/ha
  Postemergence herbicidal rating TRZAWR: 2.0
[11]; 0.032 kg/ha
  Postemergence herbicidal rating TRZAWR: 3.0
[11]; 0.062 kg/ha
  Postemergence herbicidal rating TRZAWR: 3.0
GLXMAW Soybean, Williams [12]; 0.008 kg/ha
  Postemergence herbicidal rating GLXMAW: 3.5
GLXMAW Soybean, Williams [12]; 0.016 kg/ha
  Postemergence herbicidal rating GLXMAW: 3.5
GLXMAW Soybean, Williams [12]; 0.032 kg/ha
  Postemergence herbicidal rating GLXMAW: 4.5
GLXMAW Soybean, Williams [12]; 0.062 kg/ha
  Postemergence herbicidal rating GLXMAW: 5.0
ECHOG Barnyardgrass; rate 0.008 kg/ha
  ECHCG herbicidal rating: 0.0
ECHOG Barnyardgrass; rate 0.016 kg/ha
  ECHCG herbicidal rating: 0.0
ECHOG Barnyardgrass; rate 0.032 kg/ha
  ECHCG herbicidal rating: 0.0
ECHOG Barnyardgrass; rate 0.062 kg/ha
  ECHCG herbicidal rating: 0.0
ECHOG Barnyardgrass; rate 0.125 kg/ha
  ECHCG herbicidal rating: 0.0
SETVI Foxtail, Green [13]; 0.008 kg/ha
  Postemergence herbicidal rating SETVI: 0.0
SETVI Foxtail, Green [13]; 0.016 kg/ha
  Postemergence herbicidal rating SETVI: 0.0
SETVI Foxtail, Green [13]; 0.032 kg/ha
  Postemergence herbicidal rating SETVI: 0.0
SETVI Foxtail, Green [13]; 0.062 kg/ha
  Postemergence herbicidal rating SETVI: 5.0
GALAP Galium; rate 0.008 kg/ha
  GALAP herbicidal rating: 0.0
GALAP Galium; rate 0.016 kg/ha
  GALAP herbicidal rating: 0.0
GALAP Galium; rate 0.032 kg/ha
  GALAP herbicidal rating: 0.0
GALAP Galium; rate 0.062 kg/ha
  GALAP herbicidal rating: 0.0
GALAP Galium; rate 0.125 kg/ha
  GALAP herbicidal rating: 0.0
